Patent US8034314B2, “Photoreactive compound specifically binding to calcium binding proteins” (priority 2004, dated 2011)

Legend:
[1] = system: U-937 human monocytic cell line; assay: STS-induced apoptotic cell death of U-937 cells (acridine orange/ethidium bromide staining); type: cell-based
Method: The U-937 human monocytic cell line was grown under an atmosphere of 95% air and 5% CO2 in RPMI 1640 supplemented with 10% fetal calf serum (FCS), 1 mM L-glutamine, 100 U/ml penicillin, and 100 μg/ml streptomycin. Cells were plated at a density of 5.4×10^4 cells/cm^2 in 24-well plates and then incubated with or without AzRu for 18 hr before exposure to 1.25 μM staurosporine (STS) to induce apoptosis. Cell viability was analyzed 5 and 7 hrs after STS addition by staining with 100 μg/ml acridine orange (AcOr) and 100 μg/ml ethidium bromide (EtBr) in PBS. The cells were then visualized by fluorescence microscopy (Olympus IX51) and images were recorded on an Olympus DP70 camera, using an SWB filter.
AzRu had no effect on the viability of the cells that were not exposed to STS. In FIG. 13 A, U-937 cells were incubated without (a, c) or with AzRu (10 μM) (b,d) for 18 hrs and thereafter were exposed to STS (1.25 μM) (c and d). After five hours the cells were stained with acridine orange and ethidium bromide. Arrows indicate cells in early apoptotic state, represented as degraded nucleus, but with intact cell membrane (stained by acridine orange). Arrowheads indicate a late apoptotic state, as shown by the presence of a degraded nucleus (stained by both acridine orange and ethidium bromide). Scale bar, 20 μm. In FIG. 13 B, quantitative analysis of apoptotic cell death in control cells and cells exposed to AzRu was assessed 5 and 7 hr after their exposure to STS (1.25 by ANOVA and t-test. P<0.001 was considered statistically significant (***). Data are the means±SEM, n=3. In each independent experiment, approximately 200 cells were counted for each treatment.

[2] = target: T1, ryanodine receptor (RyR) / Ca2+-release channel (Oryctolagus cuniculus, UniProt P11716); assay: [3H]ryanodine binding to SR membranes; design: species or system rabbit
T1 construct: from tissue; host or cells: rabbit fast twitch skeletal muscle SR membranes
Method: (§1) Sarcoplasmic reticulum (SR) membranes were prepared from rabbit fast twitch skeletal muscle as described by Saito [Saito et al.: J. Cell Biol. 99 (1984) 875-85]. Mitochondria were isolated from rat liver as described by us previously [Gincel D. et al.: Biochem J. 358 (2001) 147-55]. VDAC was purified by a method developed in our laboratory, using columns of hydroxyapatite and reactive red agarose [Gincel D. et al.: J. Bioenerget. Biomembr. 32 (2000) 571-83].
For the determination of [^3H]ryanodine binding, SR membranes were incubated for 20-60 min at 37° C. in a standard binding solution containing 1M NaCl, 20 mM MOPS (pH 7.4), 50 μM free Ca^2+ and 20 nM [^3H]ryanodine. Unbound ryanodine was separated from protein-bound ryanodine by vacuum filtration of the sample through nitrocellulose filters (0.45 μm), followed by two washes with 4 ml ice-cold buffer containing 0.2 M NaCl, 10 mM MOPS (pH 7.4) and 50 μM CaCl2. The retained radioactivity in the dried filters was determined by liquid scintillation counting. Specific binding of [^3H]ryanodine was defined as the difference between the binding in the presence of 20 nM [^3H]ryanodine and in the presence of 20 μM unlabeled ryanodine.
(§2) The hexavalent RuR and the trivalent Ru360 have been employed in various studies as inhibitors of Ca^2+-dependent reactions. As shown here, even with no photoactivation, AzRu, in contrast to RuR and Ru360, was effective in inhibiting the SR Ca^2+-pump (Table 3). […] This may open the way to inhibit other Ca^2+-dependent activities that are not sensitive to RuR, such as the plasma membrane Ca^2+-ATPase. […] RuR was employed to improve mitochondrial production in ischemic reperfused pig myocardium, was employed in the nervous system to follow neuronal death progress and can act as an anti-oxidant in certain conditions. Considering the potent activity of AzRu in RuR-insensitive reactions (see Table 3), its applications in various biological studies should be explored. Ca^2+ accumulation in SR and mitochondria was assayed as described above in the absence and presence of different concentrations of RuR (0.05-100 μM), Ru360 (0.01-100 μM) or AzRu (0.1-100 μM). The concentration required for 50% inhibition (IC50) was derived from the plot of Ca^2+ accumulation activity or ryanodine binding as a function of the reagent concentration. The results are the mean±SEM of 3 to 5 experiments (Table 3).

[3] = system: Mg2+-dependent proteins and the Zn2+-sensitive KCNK0 channel; assay: Activities of Mg2+-dependent proteins and Zn2+-sensitive KCNK0 channel (summary of Table 1); type: biochemical; conditions: at 100 μM
[4] = target: T2, Peroxidase (Armoracia rusticana, UniProt P00433); assay: Peroxidase activity; type: biochemical, horseradish; conditions: AzRu 20 μM; mean ± SEM
T2 construct: purchased Sigma
From the text: (§3) Unlabelled ryanodine was obtained from Calbiochem. […] Ruthenium chloride was purchased from Aldrich.

[5] = target: T3, Aldolase (Oryctolagus cuniculus, UniProt P00883); assay: Aldolase activity; type: biochemical; conditions: AzRu 100 μM; mean ± SEM
T3 construct: purchased Sigma
From the text: as §3

[6] = target: T4, Ca2+-pump (SERCA) of skeletal muscle sarcoplasmic reticulum (Oryctolagus cuniculus, UniProt P04191); assay: Ca2+ uptake/accumulation in SR membranes (Ca2+-pump activity); type: biochemical, rabbit
T4 construct: Sarcoplasmic reticulum (SR) membranes were prepared from rabbit fast twitch skeletal muscle; from tissue; host or cells: rabbit fast twitch skeletal muscle SR membranes
Method: as §1
(§4) Ca^2+-accumulation in freshly prepared mitochondria (0.5 mg/ml) was assayed for 1 to 20 minutes at 30° C. in the presence of 225 mM mannitol, 75 mM sucrose, 120 μM CaCl2 (containing 3×10^4 cpm/nmol ^45Ca^2+), 5 mM HEPES/KOH pH 7.0, and 5 mM succinate with 0.1 mM Pi, or 4 mM MgCl2 with 3 mM ATP. The Ca^2+-uptake was terminated by rapid Millipore filtration, followed by a wash with 5 ml of 0.15 M KCl. The Ca^2+-accumulation in SR was determined as described previously [Shoshan-Barmatz V. & Shaineberg A.: Biochim. Biophys. Acta 1065 (1991) 82-8]. Electron transport from succinate to cytochrome c was described in above cited article [Gincel D. et al.: J. Bioenerget. Biomembr. 32 (2000) 571-83].
The preparation of SR membranes from skeletal muscle, and the measurement of Ca^2+-accumulation were carried out as described above.
as §2

[7] = system: mitochondrial uniporter (Ca2+ uptake in mitochondria); assay: Ca2+ uptake/accumulation in isolated mitochondria; type: biochemical, rat
Method: as §1, §4
The effect of AzRu on mitochondrial process of electron transport from the donor succinate to the acceptor cytochrome c was characterized as described above. Although said electron transfer involves several dozens electron transfer carriers, this reaction was not affected by azido-ruthenium of this invention.
as §2

[8] = target: T5, Catalase (Bos taurus, UniProt P00432); assay: Catalase activity; type: biochemical, bovine; conditions: AzRu 100 μM; mean ± SEM
T5 construct: bovine liver catalase; purchased Sigma; host or cells: bovine liver
From the text: as §3

[9] = target: Lysozyme (Gallus gallus, UniProt P00698); assay: Lysozyme activity; type: biochemical; conditions: AzRu 100 μM; mean ± SEM
[10] = system: Succinate-cytochrome c oxido-reductase; assay: Electron transport from succinate to cytochrome c in mitochondria; type: biochemical, rat
Method: as §1, §4
The effect of AzRu on mitochondrial process of electron transport from the donor succinate to the acceptor cytochrome c was characterized as described above. […]

[11] = target: Brain hexokinase (Homo sapiens, UniProt P19367); assay: Brain hexokinase activity; type: biochemical; conditions: mean ± SEM
[12] = +UV (photoactivation), mean ± SEM
[13] = no UV, mean ± SEM of 3 to 5 experiments

T4 sequence (P04191 1-994 isoform P04191-2): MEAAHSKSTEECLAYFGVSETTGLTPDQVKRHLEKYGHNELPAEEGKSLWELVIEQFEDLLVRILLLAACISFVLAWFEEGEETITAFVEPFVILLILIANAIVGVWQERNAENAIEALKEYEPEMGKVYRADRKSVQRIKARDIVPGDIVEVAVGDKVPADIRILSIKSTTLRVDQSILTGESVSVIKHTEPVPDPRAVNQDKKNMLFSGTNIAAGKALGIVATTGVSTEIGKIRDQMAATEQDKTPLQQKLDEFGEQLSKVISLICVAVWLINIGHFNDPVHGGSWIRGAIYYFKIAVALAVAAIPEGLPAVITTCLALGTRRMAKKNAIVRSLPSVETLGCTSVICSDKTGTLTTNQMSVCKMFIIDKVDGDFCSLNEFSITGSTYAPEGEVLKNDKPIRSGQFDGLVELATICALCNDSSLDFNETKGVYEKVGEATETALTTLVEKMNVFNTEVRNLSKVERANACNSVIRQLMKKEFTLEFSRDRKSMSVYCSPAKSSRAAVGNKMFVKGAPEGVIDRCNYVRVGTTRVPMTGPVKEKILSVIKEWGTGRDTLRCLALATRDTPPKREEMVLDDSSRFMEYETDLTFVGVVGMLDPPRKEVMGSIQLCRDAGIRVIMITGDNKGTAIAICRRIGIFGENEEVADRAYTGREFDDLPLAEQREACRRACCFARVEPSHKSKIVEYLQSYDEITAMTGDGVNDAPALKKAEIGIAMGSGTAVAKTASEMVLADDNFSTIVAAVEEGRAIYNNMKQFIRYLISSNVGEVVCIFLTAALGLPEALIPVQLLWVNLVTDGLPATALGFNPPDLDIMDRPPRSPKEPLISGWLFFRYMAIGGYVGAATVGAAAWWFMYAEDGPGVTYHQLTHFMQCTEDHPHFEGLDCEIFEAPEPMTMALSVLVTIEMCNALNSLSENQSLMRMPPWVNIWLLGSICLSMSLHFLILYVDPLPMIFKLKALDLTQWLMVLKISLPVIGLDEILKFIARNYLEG
Chain of Brain hexokinase (P19367 whole entry): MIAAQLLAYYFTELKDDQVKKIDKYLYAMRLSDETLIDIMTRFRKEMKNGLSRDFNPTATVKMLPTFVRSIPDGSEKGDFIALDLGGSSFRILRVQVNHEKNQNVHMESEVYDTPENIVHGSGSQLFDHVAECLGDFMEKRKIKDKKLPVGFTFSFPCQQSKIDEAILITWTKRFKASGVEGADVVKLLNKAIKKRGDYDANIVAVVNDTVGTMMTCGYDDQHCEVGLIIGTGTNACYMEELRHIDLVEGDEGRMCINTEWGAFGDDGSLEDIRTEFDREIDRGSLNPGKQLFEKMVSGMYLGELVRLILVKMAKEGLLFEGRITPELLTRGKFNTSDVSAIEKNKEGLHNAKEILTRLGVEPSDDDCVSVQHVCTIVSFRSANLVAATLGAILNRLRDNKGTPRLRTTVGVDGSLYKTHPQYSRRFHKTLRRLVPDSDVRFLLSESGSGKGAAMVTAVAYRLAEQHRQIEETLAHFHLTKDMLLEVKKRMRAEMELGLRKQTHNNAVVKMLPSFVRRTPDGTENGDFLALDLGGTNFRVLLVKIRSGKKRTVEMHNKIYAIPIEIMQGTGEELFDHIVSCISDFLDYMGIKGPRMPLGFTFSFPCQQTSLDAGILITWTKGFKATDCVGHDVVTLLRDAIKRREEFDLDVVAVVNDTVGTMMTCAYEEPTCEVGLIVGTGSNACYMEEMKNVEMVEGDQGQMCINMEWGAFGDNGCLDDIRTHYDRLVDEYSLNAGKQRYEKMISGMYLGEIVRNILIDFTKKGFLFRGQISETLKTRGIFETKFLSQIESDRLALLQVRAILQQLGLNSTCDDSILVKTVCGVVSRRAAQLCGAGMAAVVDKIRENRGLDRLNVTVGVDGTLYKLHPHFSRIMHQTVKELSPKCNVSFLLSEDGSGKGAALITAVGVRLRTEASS
T3 sequence (P00883 2-364 limits assumed): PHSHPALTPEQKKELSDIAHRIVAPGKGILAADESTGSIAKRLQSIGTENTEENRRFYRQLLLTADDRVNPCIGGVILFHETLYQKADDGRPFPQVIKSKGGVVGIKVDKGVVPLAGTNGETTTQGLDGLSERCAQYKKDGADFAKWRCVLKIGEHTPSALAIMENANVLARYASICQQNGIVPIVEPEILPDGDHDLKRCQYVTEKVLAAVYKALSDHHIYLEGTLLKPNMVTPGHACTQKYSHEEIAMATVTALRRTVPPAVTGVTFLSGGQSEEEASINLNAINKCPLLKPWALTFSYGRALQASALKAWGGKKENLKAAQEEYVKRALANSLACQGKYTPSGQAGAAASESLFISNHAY
T5 sequence (P00432 whole entry): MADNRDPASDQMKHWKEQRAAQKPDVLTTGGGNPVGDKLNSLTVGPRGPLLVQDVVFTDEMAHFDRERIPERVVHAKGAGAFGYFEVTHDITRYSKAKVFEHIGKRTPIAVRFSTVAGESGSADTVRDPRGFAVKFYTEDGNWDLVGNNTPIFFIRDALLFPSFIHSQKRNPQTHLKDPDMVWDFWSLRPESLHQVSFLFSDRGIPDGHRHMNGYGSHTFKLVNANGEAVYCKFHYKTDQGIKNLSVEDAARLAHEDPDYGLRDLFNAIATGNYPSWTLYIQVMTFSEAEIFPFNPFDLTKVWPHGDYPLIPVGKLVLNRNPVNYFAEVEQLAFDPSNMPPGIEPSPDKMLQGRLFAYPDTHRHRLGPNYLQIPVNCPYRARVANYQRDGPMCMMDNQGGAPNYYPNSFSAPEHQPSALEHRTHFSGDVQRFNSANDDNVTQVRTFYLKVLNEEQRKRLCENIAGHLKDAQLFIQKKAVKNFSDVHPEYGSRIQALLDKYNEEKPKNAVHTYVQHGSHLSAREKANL
Chain of Lysozyme (P00698 19-147): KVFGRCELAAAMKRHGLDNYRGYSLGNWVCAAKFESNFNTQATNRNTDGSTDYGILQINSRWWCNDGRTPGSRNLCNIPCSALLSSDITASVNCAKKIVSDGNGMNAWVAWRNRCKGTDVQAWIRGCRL
T2 sequence (P00433 31-338): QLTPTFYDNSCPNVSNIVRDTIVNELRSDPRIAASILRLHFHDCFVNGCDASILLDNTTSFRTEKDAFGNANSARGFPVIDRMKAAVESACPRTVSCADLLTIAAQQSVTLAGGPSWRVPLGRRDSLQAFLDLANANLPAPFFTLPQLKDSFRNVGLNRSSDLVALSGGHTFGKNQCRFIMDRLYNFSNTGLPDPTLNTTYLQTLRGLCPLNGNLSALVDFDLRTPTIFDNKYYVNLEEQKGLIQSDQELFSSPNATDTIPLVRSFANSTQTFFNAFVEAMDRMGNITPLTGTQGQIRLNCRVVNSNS

azido-ruthenium [AzRu]
Reduction of STS-activated apoptotic cell death ([1]; AzRu 10 μM added 18 h before STS 1.25 μM, 7 h of exposure to STS): ~47% | Effect on viability of cells not exposed to STS ([1]; U-937 cells, no STS): no effect | IC50 [2, 12]: 1210 ± 60 nM | Activity (% of control), Ryanodine binding by SR RyR ([2]; AzRu 20 μM, mean ± SEM): 18 ± 6 % of control | Effect on binding of ryanodine to SR membranes ([2]; FIG. 8): strongly inhibited | IC50 [2, 13]: 2900 ± 170 nM | Inhibition of activities of Mg2+-dependent proteins and Zn2+-sensitive KCNK0 channel [3]: ~30% | Activity (% of control), Peroxidase [4]: 39 ± 4 % of control | Activity (% of control), Aldolase [5]: 78 ± 7 % of control | IC50 [6, 12]: 1010 ± 95 nM | Activity (% of control), Ca2+ uptake in SR (SERCA) ([6]; AzRu 20 μM, mean ± SEM of 3 to 6 experiments): 13 ± 6 % of control | Change of sensitivity of the Ca2+-pump activity to the reagent by photoactivation ([6]; UV irradiation, SR membranes): increased more than two-fold | IC50 ([6]; no photoactivation, mean ± SEM of 3 to 5 experiments): 4910 ± 55 nM | Activity (% of control), Ca2+ uptake in mitochondria ([7]; AzRu 20 μM, mean ± SEM): 11 ± 4 % of control | Effect on Ca2+ transport in mitochondria ([7]; isolated mitochondria, FIG. 7): inhibited | IC50 [7, 13]: 1780 ± 120 nM | Activity (% of control), Catalase [8]: 118 ± 8 % of control | Activity (% of control), Lysozyme [9]: 101 ± 3 % of control | Activity (% of control), Succinate-cytochrome c oxido-reductase ([10]; AzRu 100 μM, mean ± SEM): 95 ± 5 % of control | Effect on electron transfer from succinate to cytochrome c in mitochondria ([10]; isolated mitochondria, FIG. 7): not affected | Activity (% of control), Brain hexokinase ([11]; AzRu 20 μM): 73 ± 7 % of control | Activity (% of control), Brain hexokinase ([11]; AzRu 100 μM): 61 ± 3 % of control
